Experimental data from PubChem BioAssay (NCI).
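Assay format: 96-well plates, 48-hour exposure. GI50 is the concentration that inhibits growth by half. TGI is the concentration that stops growth completely.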

Legend:
Assay in all cases: NCI tumour cell line growth inhibition, 48 h
[1] = tested on: A498 renal
[2] = tested on: HCC-2998 colon
[3] = tested on: MALME-3M melanoma
[4] = tested on: NCI-H460 lung
[5] = tested on: OVCAR-3 ovarian
[6] = tested on: OVCAR-8 ovarian
[7] = tested on: SNB-75 CNS
[8] = tested on: SR leukemia

Row | Structure (SMILES) | TGI [1] [µM] | TGI [2] [µM] | TGI [3] [µM] | TGI [4] [µM] | TGI [5] [µM] | TGI [6] [µM] | TGI [7] [µM] | TGI [8] [µM] | GI50 [2] [µM] | GI50 [3] [µM] | GI50 [4] [µM] | GI50 [5] [µM] | GI50 [6] [µM] | GI50 [7] [µM] | GI50 [1] [µM]
1 | CCOC1=NC(=O)CC(c2ccccc2)S1 (centres undefined) | > 100 | > 100 | > 100 | > 100 | > 100 | > 100 |  |  |  |  |  |  |  |  | 
2 | CC1=C(C)CC2(CCCCC2=O)S(=O)C1 (centres undefined) | > 100 | > 100 | > 100 | > 100 | > 100 | > 100 | > 100 | > 100 |  |  |  |  |  |  | 
3 | Cn1cc(C(=O)c2ccccc2)ccc1=O |  | > 100 | > 100 | > 100 | > 100 | > 100 | > 100 | > 100 |  |  |  |  |  |  | 
4 | Cc1ccc(Nc2nc3c(s2)C(=O)c2ccccc2C3=O)c(C)c1 | > 100 | 31.8 | 26.9 | 54.2 | 27.5 | 35.2 | 30.1 |  |  |  |  |  |  |  | 
5 | CN(C)CC/C(=N\Nc1c(Cl)cccc1Cl)c1ccccc1 | 34.8 |  | 43.6 | 29.9 | 65.9 | 37.6 | 55.6 | 63.4 |  |  |  |  |  |  | 
6 | Cc1ccc(N(C(=O)CC(=O)NN)C(=O)c2ccccc2Cl)cc1 | > 100 | > 100 | > 100 | > 100 | > 100 | > 100 | > 100 |  |  |  |  |  |  |  | 
7 | CC(=O)[CH-]C(=O)c1ccccc1.CC(=O)[CH-]C(=O)c1ccccc1.O=C([O-])c1ccc([O-])cc1.O=C([O-])c1ccc([O-])cc1.[Ti+4] |  | > 100 | 66.8 | > 100 | > 100 | > 100 | > 100 |  | 46.3 | 23.6 | 44.2 | 33.4 | 46.5 | 29.1 | 
8 | CCC[CH2][Sn]1([CH2]CCC)[O]C(=O)C(C(C)C)N=Cc2ccccc2[O]1 (centres undefined) | > 100 | 1.88 | 0.456 | 2.57 | 1.99 | > 100 | 0.776 |  | 0.6 | 0.188 | 1.28 | 0.73 | > 100 | 0.235 | 1.08
9 | COc1c2c(cc3nc4ccccc4nc13)CCC(C(C)(C)O)C2 (centres undefined) | > 100 | > 100 | > 100 | > 100 | > 100 | > 100 | > 100 | > 100 |  |  |  |  |  |  | 
10 | Cc1cccc(NC(=O)C(=O)Cc2nc3ccccc3[nH]c2=O)c1C | > 100 | > 100 | > 100 | > 100 | > 100 | > 100 | > 100 | > 100 |  |  |  |  |  |  | 
11 | COC(=O)c1cccc2cccc(C(=O)Nc3ccc(C)cc3C)c12 | > 100 | > 100 | > 100 | > 100 | > 100 | > 100 | > 100 | > 100 |  |  |  |  |  |  | 
12 | NC(CC(=O)OCc1ccccc1)C(=O)OCc1ccccc1 (centres undefined) |  | 89.1 |  | > 100 | > 100 | > 100 |  | > 100 |  |  |  |  |  |  | 
13 | CCOC(=O)CN=c1nc(SC)sc2c(C(=O)OCC)nc(Sc3ccccc3)n12 |  | > 100 | > 100 |  | > 100 | > 100 |  | > 100 |  |  |  |  |  |  | 
14 | C=CCCCCCCCCC(=O)NS(=O)(=O)c1ccccc1 | > 100 | > 100 | > 100 | > 100 | > 100 | > 100 | > 100 |  |  |  |  |  |  |  | 
15 | O=C(O)CP(=S)(S)c1ccccc1 (centres undefined) | > 100 |  | > 100 | > 100 |  | > 100 |  | > 100 |  |  |  |  |  |  | 
16 | Cc1noc(C)c1CCCOC1COc2ccccc2OCCOCCOc2ccccc2OC1 | > 100 | > 100 | > 100 |  | > 100 | > 100 | > 100 |  |  |  |  |  |  |  | 
17 | CC[O-].CC[O-].O=C1c2ccccc2C(=O)c2c(O)ccc([O-])c21.O=C1c2ccccc2C(=O)c2c(O)ccc([O-])c21.[Ti+4] | > 100 |  | > 100 | > 100 | > 100 | > 100 | > 100 |  |  |  |  |  |  |  | 
18 | O=c1cccccc1NCCCNc1cccccc1=O |  |  | 39.2 | > 100 | > 100 | > 100 |  | > 100 |  |  |  |  |  |  | 
19 | NC1=NN(c2ccccc2)C(=O)C1C(=O)CCC(=O)Nc1cccc(C(F)(F)F)c1 (centres undefined) |  | > 100 | > 100 | > 100 | > 100 | > 100 |  | > 100 |  |  |  |  |  |  | 
20 | COC(=O)c1cc(Br)c(Br)n1C | > 100 | > 100 | > 100 |  | > 100 | > 100 | > 100 | > 100 |  |  |  |  |  |  | 
